We go through 2 molecules from US20190231844A1, “ORAL APPLICATION OF THIOPEPTCIN” (NANJING BIOTICA PHARMACEUTICAL COMPANY, priority 2015, published 2019).

The MIC is the lowest concentration found to suppress growth.

≈ marks a conversion by molar mass, not a printed value.

Series [1] deals with C. difficile ATCC 9689. Put plainly: MIC by broth dilution method (CLSI M11-A7). The format is cell-based. The settings on record: Clostridioides difficile, ATCC9689, read-out: Sensitivity of C. difficile (MIC). On the technique in general: Broth dilution looks for growth in wells or tubes with falling amounts of substance.
The test system of series [2] is clinically isolated strain LCN 001. Description: MIC by broth dilution method (CLSI M11-A7). In kind it is cell-based. The conditions noted are these: Clostridioides difficile, LCN001, read-out: Sensitivity of C. difficile (MIC).
In series [3] the test system is Reduced-sensitivity strain to Vancomycin C. difficile LCN 0012. Put plainly: MIC by broth dilution method (CLSI M11-A7). The format is cell-based. The conditions noted are these: Clostridioides difficile.
Series [4] deals with Reduced-sensitivity strain to Metronidazole C. difficile LCN 0048. Put plainly: MIC by broth dilution method (CLSI M11-A7). The format is cell-based. The settings on record: Clostridioides difficile.
For series [5], the system named is Clindamycin-resistant strain C. difficile LCN 0027. Description: MIC by broth dilution method (CLSI M11-A7). In kind it is cell-based. The conditions noted are these: Clostridioides difficile, read-out: Sensitivity of C. difficile (MIC).
The test system of series [6] is Erythrocin-resistant strain C. difficile LCN 0081. Description: MIC by broth dilution method (CLSI M11-A7). The format is cell-based. The settings on record: Clostridioides difficile, read-out: Sensitivity of C. difficile (MIC).
Series [7] can be described thus: Pharmacokinetics of thiopeptcin after oral (intragastric) administration, plasma by LC-MS/MS. The conditions noted are these: after intragastric administration in rats, all doses and time points. In kind it is in vivo. As to the method:
30 μl of blood or urine sample was added into 90 μl of methanol containing 5 ng/ml verapamil. After vortexing for 3 min and centrifuging at 14,000 rpm for 5 min, 80 μl of supernatant was taken for LC-MS/MS analysis.
Conditions for LC were as follows: • Column: Waters Symmetry 300 C18 3.5 μm 2.1*100 mm; • Mobile phase A: 10 mM ammonium acetate+0.02% aqueous ammonia solution; mobile phase B: methanol; • Duration of analysis: 5.2 min; injection volume: 5 μL; column temperature: 25° C.; gradient elution:
Conditions for MS/MS analysis were as follows: • Mass Spectrometer: Positive Ion Mode (Agilent 6460B) • Detection of ion pairs: Thiopeptcin: 1437.3-172.0, fragment=135, CE=22; • Verapamil (internal standard): 455.2→165.1, fragment=135, CE=25; • Mass spectrometry parameters: gas temp at 350 ° C.; gas flow at 10 L/min; nebulizer of 40 psi; sheath gas flow at 10 L/min and sheath gas heater at 400° C.
Preparation of thiopeptcin: Certain amount of thiopeptcin was dissolved in a mixed solvent of pH 5.0 containing 10% PEG400, 1% Tween 80 and 5 mg/ml citric acid. The solution was shaken to be clear for intragastric administration.
Male rats were divided into 4 groups with high, medium, and low doses according to experimental purposes. The high dose group was 50 mg/kg, the middle dose group was 25 mg/kg, the low-1 dose group was 5 mg/kg and the low-2 dose group was 1 mg/kg. […]

Regarding `C=C(NC(=O)c1csc(-c2nc3c(cc2O)-c2nc(cs2)C(=O)N[C@@H]([C@@H](C)O)C(=O)N/C(=C(\C)OC)c2nc(cs2)C(=O)N[C@@H]2c4nc(cs4)C(=O)N[C@@H](COC(=O)c4c5c6c(cccc6n4O)COC(=O)[C@@H](OC4C[C@](C)(O)[C@H](N(C)C)[C@H](C)O4)C2OC5)c2nc-3cs2)n1)C(N)=O` (stereo partly shown) [Thiopeptcin], the MIC was 0.005 µg/mL (≈ 0.00348 µM) in series [1]; 0.025 µg/mL (≈ 0.0174 µM) in series [2]; 0.025 to 0.05 µg/mL (≈ 0.0174 to 0.0348 µM) in series [3]; 0.005 to 0.01 µg/mL (≈ 0.00348 to 0.00696 µM) in series [4]; 0.025 µg/mL (≈ 0.0174 µM) in series [5]; 0.005 µg/mL (≈ 0.00348 µM) in series [6]. Moreover, the “plasma concentration of thiopeptcin (below limit of quantification)” value in series [7] is recorded as less than 1 ng/mL.
For `CN[C@H](CC(C)C)C(=O)N[C@H]1C(=O)N[C@@H](CC(N)=O)C(=O)N[C@H]2C(=O)N[C@H]3C(=O)N[C@H](C(=O)N[C@H](C(=O)O)c4cc(O)cc(O)c4-c4cc3ccc4O)[C@H](O)c3ccc(c(Cl)c3)Oc3cc2cc(c3O[C@@H]2O[C@H](CO)[C@@H](O)[C@H](O)[C@H]2O[C@H]2C[C@](C)(N)[C@H](O)[C@H](C)O2)Oc2ccc(cc2Cl)[C@H]1O` [Vancomycin, reference compound], the MIC in series [1] is 0.25 µg/mL (≈ 0.173 µM); in series [2], 0.5 µg/mL (≈ 0.345 µM); in series [3], 4 to 8 µg/mL (≈ 2.76 to 5.52 µM); in series [4], 0.8 to 3 µg/mL (≈ 0.552 to 2.07 µM); in series [5] it was 1.5 µg/mL (≈ 1.04 µM); in series [6], 1.5 µg/mL (≈ 1.04 µM).
